Laboratory results taken from patent US11654198B2, “Application of combination of polyethylene glycol and local anesthetic in non-narcotic analgesia” (JENKEM TECHNOLOGY CO., LTD. (TIANJIN), priority 2016, dated 2023).

How the values were obtained:
Type in all cases: in vivo
SD rats [1] = experiment: Motor block four-level score, rat sciatica model (SNL) (Example 32); parameters: key to motor function score: 1 = normal paw movement to 4 = complete loss, gait defect; settings: for motor function score: bupivacaine 8, conjugate 10/11/12 32/24/48 mg/kg
Text: (§1) Intervertebral disc compression (SNL): This model is a pathological form that simulates clinical disc herniation. The specific method is to remove the autogenous caudal intervertebral disc tissue (annulus fibrosus and nucleus pulposus) form the rats and place the caudal intervertebral disc tissue between the proximal nerve root of the L5 dorsal root ganglion and the lower vertebral body to directly compress the L5 nerve root, wherein damage to the L5 nerve root or dorsal root ganglion should be avoided during the operation. 3 to 15 days after the model is successful, rats develop significant hyperalgesia, so the administration time we chose is between 3 days and 15 days.
(§2) Qualified rats are randomly divided into 5 groups, 6 rats in each group, which are labeled as groups G1, G2, G3, G4 and G5, respectively. Administration by intramuscular injection around sciatic nerve is adopted, and the grouping information of the experimental animals is shown in Table 11.
Motor block (four-level score): The exercise condition of each group of rats is evaluated by the motor block four-level scoring method. The scoring criteria are: paws can be dorsiflexed, stretched, valgus and other normal exercises, scored by 1 point; paws can be dorsiflexed, bendable or after the adduction, although the paws can be stretched, the stretching ability is weakened, scored by 2 points; the paw can perform dorsiflexion, but no longer has the ability to stretch, scored by 3 points; the paw completely loses the ability of dorsiflexion, curling and stretching, and the rats produce a gait defect, scored by 4 points. The time point for determining the withdrawal time of the hot plate is before administration, and 0.5 h, 1 h, 2 h, 4 h, 6 h, 8 h, 12 h, and 24 h after administration.

SD rats [2] = experiment: Hot plate paw withdrawal time, rat plantar incision model (Example 31)
Method: (§3) After SD rats inhale anesthesia (isoflurane), an incision of about 1 cm in length from the proximal end of the pelma to the toe is made: after the skin and fascia are cut, the plantar muscle is picked up with an ophthalmic forceps and cut longitudinally (maintaining the starting and ending point and attachment of muscles); pressing is carried out for hemostasis, physiological saline and test drugs are injected into the muscles of animal's legs, and then the pain threshold detection is performed by the hot plate method. Within 24 hours after the model is successful, the rats develop significant hyperalgesia. Qualified rats are randomly divided into 5 groups, 6 rats in each group, which are labeled as groups G1, G2, G3, G4 and G5, respectively. The plantar subcutaneous injection method for administration is used, and the grouping information of the experimental animals is shown in Table 8.
(§4) Sensory block (hot plate paw withdrawal time): The sensory block of the rat is examined by a hot plate method, and the hot plate is heated to (56±1)° C., and one of the hind paws of the rat is placed on the hot plate, the other hind paw is in the laboratory room temperature condition, and the tested paw withdrawal time is observed and recorded. The average value of two to three times measured is recorded as a pain threshold. In order to avoid the damage of the experimental animal body, if the rat has no paw withdrawal in the hot plate experiment for more than 15 s, the paws should be removed from the hot plate, and the experimental result is recorded as 15 s. The time point for determining the paw withdrawal time of the hot plate is before administration, and 0.5 h, 1 h, 2 h, 4 h, 6 h, 8 h, 12 h, and 24 h after administration.

SD rats [3] = experiment: Motor block four-level score, rat plantar incision model (Example 31); parameters: key to motor function score: 1 = normal paw movement to 4 = complete loss of movement with gait defect; settings: for motor function score: bupivacaine 8, conjugate 10/11/12 32/24/48 mg/kg
Method: as §3
Motor block (four-level score): The exercise condition of each group of rats is evaluated by the motor block four-level scoring method. The scoring criteria are: paws can be dorsiflexed, stretched, valgus and other normal exercises, scored by 1 point; paws can be dorsiflexed, bendable or after the adduction, although the paws can be stretched, the stretching ability is weakened, scored by 2 points; the paws can perform dorsiflexion, but no longer has the ability to stretch, scored by 3 points; the paws completely lose the ability of dorsiflexion, curling and stretching, and the rats produce a gait defect, scored by 4 points. The time point for measuring the motor block score is before administration, and 0.5 h, 1 h, 2 h, 4 h, 6 h, 8 h, 12 h, and 24 h after administration.

SD rats [4] = experiment: Hot plate paw withdrawal time, rat sciatica model, intervertebral disc compression (SNL) (Example 32)
Text: as §1, §2
as §4, with “determining the withdrawal time” for “determining the paw withdrawal time”

[5] = conjugate 10/11/12 at 32/24/48 mg/kg
[6] = 0 h (after surgery, before administration), bupivacaine 8, conjugate 10/11/12 32/24/48 mg/kg
[7] = 0.5 h after plantar subcutaneous injection, bupivacaine 8, conjugate 10/11/12 32/24/48 mg/kg
[8] = 1 h after plantar subcutaneous injection, bupivacaine 8, conjugate 10/11/12 32/24/48 mg/kg
[9] = 2 h after plantar subcutaneous injection, bupivacaine 8, conjugate 10/11/12 32/24/48 mg/kg
[10] = 4 h after plantar subcutaneous injection, bupivacaine 8, conjugate 10/11/12 32/24/48 mg/kg
[11] = 6 h after plantar subcutaneous injection, bupivacaine 8, conjugate 10/11/12 32/24/48 mg/kg
[12] = 8 h after plantar subcutaneous injection, bupivacaine 8, conjugate 10/11/12 32/24/48 mg/kg
[13] = 12 h after plantar subcutaneous injection, bupivacaine 8, conjugate 10/11/12 32/24/48 mg/kg
[14] = 24 h after plantar subcutaneous injection, bupivacaine 8, conjugate 10/11/12 32/24/48 mg/kg
[15] = base value before surgery, bupivacaine 8, conjugate 10/11/12 32/24/48 mg/kg (as bupivacaine)
[16] = bupivacaine 8, conjugate 10/11/12 32/24/48 mg/kg
[17] = 0.5 h after intramuscular injection around sciatic nerve, bupivacaine 8, conjugate 10/11/12 32/24/48 mg/kg
[18] = 1 h after intramuscular injection around sciatic nerve, bupivacaine 8, conjugate 10/11/12 32/24/48 mg/kg
[19] = 2 h after intramuscular injection around sciatic nerve, bupivacaine 8, conjugate 10/11/12 32/24/48 mg/kg
[20] = 4 h after intramuscular injection around sciatic nerve, bupivacaine 8, conjugate 10/11/12 32/24/48 mg/kg
[21] = 6 h after intramuscular injection around sciatic nerve, bupivacaine 8, conjugate 10/11/12 32/24/48 mg/kg
[22] = 8 h after intramuscular injection around sciatic nerve, bupivacaine 8, conjugate 10/11/12 32/24/48 mg/kg
[23] = 12 h after intramuscular injection around sciatic nerve, bupivacaine 8, conjugate 10/11/12 32/24/48 mg/kg
[24] = 24 h after intramuscular injection around sciatic nerve, bupivacaine 8, conjugate 10/11/12 32/24/48 mg/kg
[25] = before surgery, bupivacaine 8, conjugate 10/11/12 32/24/48 mg/kg (as bupivacaine)

## 8-Arm-PEG-Bupivacaine, 20K [bupivacaine conjugate 12]
SD rats [1]; 0.5 h
  motor function score: 1 ± 0
SD rats [1]; 1 h
  motor function score: 1 ± 0
SD rats [1]; 2 h
  motor function score: 1 ± 0
SD rats [1]; 4 h
  motor function score: 1 ± 0
SD rats [1]; 6 h
  motor function score: 1 ± 0
SD rats [1]; 8 h
  motor function score: 1 ± 0
SD rats [1]; 12 h
  motor function score: 1 ± 0
SD rats [1]; 24 h
  motor function score: 1 ± 0
SD rats [1]; [5]
  effect on motor function of SD rats: does not affect the motor function
SD rats [2]; [6]
  hot plate paw withdrawal time: 1.89 s
SD rats [2]; [7]
  hot plate paw withdrawal time: 8.13 s
SD rats [2]; [8]
  hot plate paw withdrawal time: 7.21 s
SD rats [2]; [9]
  hot plate paw withdrawal time: 6.12 s
SD rats [2]; [10]
  hot plate paw withdrawal time: 2.49 s
SD rats [2]; [11]
  hot plate paw withdrawal time: 2.34 s
SD rats [2]; [12]
  hot plate paw withdrawal time: 2.10 s
SD rats [2]; [13]
  hot plate paw withdrawal time: 1.92 s
SD rats [2]; [14]
  hot plate paw withdrawal time: 1.76 s
SD rats [2]; [15]
  hot plate paw withdrawal time: 5.81 s
SD rats [2]; [16]
  time after administration at which hot plate paw withdrawal time is significantly higher than vehicle group: ≤ 2 h
SD rats [2]; [5]
  time the analgesic effect can reach: 2 h
SD rats [3]; 0 h (before administration)
  motor function score: 1 ± 0
SD rats [3]; 0.5 h
  motor function score: 1 ± 0
SD rats [3]; 1 h
  motor function score: 1 ± 0
SD rats [3]; 2 h
  motor function score: 1 ± 0
SD rats [3]; 4 h
  motor function score: 1 ± 0
SD rats [3]; 6 h
  motor function score: 1 ± 0
SD rats [3]; 8 h
  motor function score: 1 ± 0
SD rats [3]; 12 h
  motor function score: 1 ± 0
SD rats [3]; 24 h
  motor function score: 1 ± 0
SD rats [3]; [5]
  effect on motor function of SD rats: does not affect the motor function
SD rats [4]; [6]
  hot plate paw withdrawal time: 1.89 s
SD rats [4]; [17]
  hot plate paw withdrawal time: 8.13 s
SD rats [4]; [18]
  hot plate paw withdrawal time: 7.21 s
SD rats [4]; [19]
  hot plate paw withdrawal time: 6.12 s
SD rats [4]; [20]
  hot plate paw withdrawal time: 2.98 s
SD rats [4]; [21]
  hot plate paw withdrawal time: 2.91 s
SD rats [4]; [22]
  hot plate paw withdrawal time: 2.18 s
SD rats [4]; [23]
  hot plate paw withdrawal time: 1.85 s
SD rats [4]; [24]
  hot plate paw withdrawal time: 2.56 s
SD rats [4]; [25]
  hot plate paw withdrawal time: 5.51 s
SD rats [4]; [16]
  time after administration at which hot plate paw withdrawal time is significantly higher than vehicle group: ≤ 2 h
SD rats [4]; [5]
  time the analgesic effect can reach: 2 h

## CCCCN1CCCCC1C(=O)Nc1c(C)cccc1C (centres unmarked) [bupivacaine]
SD rats [1]; 0.5 h
  motor function score: 1 ± 0
SD rats [1]; 1 h
  motor function score: 1.75 ± 0.5
SD rats [1]; 2 h
  motor function score: 1.75 ± 0.5
SD rats [1]; 4 h
  motor function score: 1.75 ± 0.5
SD rats [1]; 6 h
  motor function score: 1.75 ± 0.5
SD rats [1]; 8 h
  motor function score: 1.75 ± 0.5
SD rats [1]; 12 h
  motor function score: 1 ± 0
SD rats [1]; 24 h
  motor function score: 1 ± 0
SD rats [2]; [6]
  hot plate paw withdrawal time: 1.02 s
SD rats [2]; [7]
  hot plate paw withdrawal time: 7.21 s
SD rats [2]; [8]
  hot plate paw withdrawal time: 6.91 s
SD rats [2]; [9]
  hot plate paw withdrawal time: 1.30 s
SD rats [2]; [10]
  hot plate paw withdrawal time: 1.51 s
SD rats [2]; [11]
  hot plate paw withdrawal time: 1.32 s
SD rats [2]; [12]
  hot plate paw withdrawal time: 2.41 s
SD rats [2]; [13]
  hot plate paw withdrawal time: 1.41 s
SD rats [2]; [14]
  hot plate paw withdrawal time: 1.45 s
SD rats [2]; [15]
  hot plate paw withdrawal time: 4.70 s
SD rats [3]; 0 h (before administration)
  motor function score: 1 ± 0
SD rats [3]; 0.5 h
  motor function score: 1 ± 0
SD rats [3]; 1 h
  motor function score: 1.75 ± 0.5
SD rats [3]; 2 h
  motor function score: 1.75 ± 0.5
SD rats [3]; 4 h
  motor function score: 1.75 ± 0.5
SD rats [3]; 6 h
  motor function score: 1.75 ± 0.5
SD rats [3]; 8 h
  motor function score: 1.75 ± 0.5
SD rats [3]; 12 h
  motor function score: 1 ± 0
SD rats [3]; 24 h
  motor function score: 1 ± 0
SD rats [4]; [6]
  hot plate paw withdrawal time: 2.28 s
SD rats [4]; [17]
  hot plate paw withdrawal time: 7.39 s
SD rats [4]; [18]
  hot plate paw withdrawal time: 9.22 s
SD rats [4]; [19]
  hot plate paw withdrawal time: 2.81 s
SD rats [4]; [20]
  hot plate paw withdrawal time: 1.89 s
SD rats [4]; [21]
  hot plate paw withdrawal time: 1.78 s
SD rats [4]; [22]
  hot plate paw withdrawal time: 1.95 s
SD rats [4]; [23]
  hot plate paw withdrawal time: 2.43 s
SD rats [4]; [24]
  hot plate paw withdrawal time: 1.72 s
SD rats [4]; [25]
  hot plate paw withdrawal time: 5.40 s
